Source: ChEMBL document CHEMBL1146054, “Structural modifications of the cannabinoid side chain towards C3-aryl and 1',1'-cycloalkyl-1'-cyano cannabinoids” (Bioorg Med Chem Lett, 2006)

What was measured:
[1] = target: Cannabinoid receptor 2 (Mus musculus, UniProt P47936); test: Displacement of [3H]CP-55940 from mouse spleen CB2 receptor; type: tissue-based
[2] = target: Cannabinoid receptor 1 (Rattus norvegicus, UniProt P20272); test: Displacement of [3H]CP-55940 from rat brain CB1 receptor
[3] = Selectivity for rat CB1 receptor over mouse CB2 receptor

Chain of Cannabinoid receptor 1 (P20272 whole entry): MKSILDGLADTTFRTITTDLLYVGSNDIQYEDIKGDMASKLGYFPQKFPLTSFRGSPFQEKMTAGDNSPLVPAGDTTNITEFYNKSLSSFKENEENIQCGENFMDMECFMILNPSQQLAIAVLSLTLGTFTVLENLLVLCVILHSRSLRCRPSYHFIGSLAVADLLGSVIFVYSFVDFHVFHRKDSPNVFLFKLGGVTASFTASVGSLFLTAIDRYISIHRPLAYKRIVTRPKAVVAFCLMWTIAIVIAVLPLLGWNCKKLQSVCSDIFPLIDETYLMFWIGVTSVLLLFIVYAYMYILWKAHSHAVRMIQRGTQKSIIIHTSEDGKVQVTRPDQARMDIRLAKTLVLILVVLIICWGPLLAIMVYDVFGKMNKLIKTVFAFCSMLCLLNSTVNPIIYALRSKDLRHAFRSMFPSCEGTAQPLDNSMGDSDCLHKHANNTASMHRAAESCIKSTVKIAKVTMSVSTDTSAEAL
Chain of Cannabinoid receptor 2 (P47936 whole entry): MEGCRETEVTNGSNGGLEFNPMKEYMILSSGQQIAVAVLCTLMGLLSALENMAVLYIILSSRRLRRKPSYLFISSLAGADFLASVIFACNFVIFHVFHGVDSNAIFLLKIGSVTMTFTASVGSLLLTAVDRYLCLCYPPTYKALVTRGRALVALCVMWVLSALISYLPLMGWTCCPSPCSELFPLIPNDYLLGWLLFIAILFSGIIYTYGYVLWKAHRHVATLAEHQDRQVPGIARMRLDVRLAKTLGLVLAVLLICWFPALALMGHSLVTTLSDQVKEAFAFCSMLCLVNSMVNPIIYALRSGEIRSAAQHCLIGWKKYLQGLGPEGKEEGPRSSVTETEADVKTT

SMILES	Ki [1] [nM]	Ki [2] [nM]	Ratio Ki [3]
CCCc1ccc(-c2cc(O)c3c(c2)OC(C)(C)[C@@H]2CC=C(C)C[C@@H]32)cc1	108	57.8	0.5
CC1=CC[C@@H]2[C@@H](C1)c1c(O)cc(-c3cccc4ccccc34)cc1OC2(C)C	9.39	11.7	1.2
C=C(C)[C@@H]1CCC(C)=C[C@H]1c1c(O)cc(-c2ccc(C)cc2)cc1O	374	638	1.7
CC1=CC[C@@H]2[C@@H](C1)c1c(O)cc(C3(C#N)CCCCC3)cc1OC2(C)C	3.86	8.26	2.1
CCCCCc1cc(O)c2c(c1)OC(C)(C)[C@@H]1CC=C(C)C[C@@H]21			1.2
CC1=CC[C@@H]2[C@@H](C1)c1c(O)cc(C34CC5CC(CC(C5)C3)C4)cc1OC2(C)C			0.1
C=C(C)[C@@H]1CCC(C)=C[C@H]1c1c(O)cc(C2(C#N)CCCCC2)cc1O	111	319	2.9
CCCCCC#Cc1cc(O)c2c(c1)OC(C)(C)[C@@H]1CC=C(C)C[C@@H]21			0.2
CCc1ccc(-c2cc(O)c3c(c2)OC(C)(C)[C@@H]2CC=C(C)C[C@@H]32)cc1	51.7	119	2.3
CC1=CC[C@@H]2[C@@H](C1)c1c(O)cc(-c3ccc(C)cc3)cc1OC2(C)C	71.8	95.5	1.3
CC1=CC[C@@H]2[C@@H](C1)c1c(O)cc(C3(C#N)CCCC3)cc1OC2(C)C	25.2	27.9	1.1
C=C(C)[C@@H]1CCC(C)=C[C@H]1c1c(O)cc(C2(C#N)CCCC2)cc1O	105	255	2.4
C=C(C)[C@@H]1CCC(C)=C[C@H]1c1c(O)cc(-c2cccc3ccccc23)cc1O	222	754	3.4
